These results are taken from patent US10358469B2, “Methods and pharmaceutical compositions for the treatment of cancer” (INSERM (INSTITUT NATIONAL DE LA SANTÉ ET DE LA RECHERCHE …, priority 2014, dated 2019).

The test system of data set [1] is A549 cells. Put plainly: Cell viability (MTT) of A549 cells under low serum / serum deprivation. Type of data set: cell-based. The protocol: (A) Karpas 1106, SU-DHL-5, SeAx and HUT-78 cells were plated at a densities of 6×10^3 in 96 well plates (100 μL total volume per well) and treated for 24 hours in a 37° C. incubator (5% CO2) with increasing concentrations of the Antp-AAC-11-LZ (363-399). 20 μL MTS reagent was then added to each well and plates were incubated for an additional 4 hours. Absorbance was measured at 490 nm using a 96-well plate reader. The extent to which the Antp-AAC-11-LZ (363-399) peptide inhibited cell proliferation was calculated as a percentage of the absorbance in each well containing the Antp-AAC-11-LZ (363-399) peptide relative to wells containing no peptide (negative control). Each bar represents the mean±s.d. from at least three independent experiments. (B) Indicated cells were plated at a densities of 4.5×10^3 in 96 well plates (100 μL total volume per well) and allowed to attach overnight in a 37° C. incubator (5% CO2). Media was removed from cells and replaced with media containing Antp-AAC-11-LZ (363-399) peptide at various concentrations (100 μL total volume per well) peptide and the plates were incubated for 24 hours. The MTT assay was then completed and data analysis was performed as described herein. […] A549 cells were plated at a densities of 4.5×10^3 in 96 well plates (100 μL total volume per well) and allowed to attach overnight in a 37° C. incubator (5% CO2). Media was removed from cells and replaced with media containing the indicated peptides at 10 μM (100 μL total volume per well) and the plates were incubated for 24 hours. The MTT assay was then completed and data analysis was performed as described herein.
(A) A549 cells were plated at a densities of 4.5×10^3 in 96 well plates (100 μL total volume per well) and allowed to attach overnight in a 37° C. incubator (5% CO2). Media was removed from cells and replaced with media containing the indicated peptides at various concentrations (100 μL total volume per well) peptide in the absence of serum and the plates were incubated for 24 hours. The MTT assay was then completed and data analysis was performed as described herein. (B) A549 or HaCat cells were plated at a densities of 4.5×10^3 in 96 well plates (100 μL total volume per well) and allowed to attach overnight in a 37° C. incubator (5% CO2). Media was removed from cells and replaced with media containing the indicated peptides at 10 μM (100 μL total volume per well) peptide in the absence of serum and the plates were incubated for 24 hours. The MTT assay was then completed and data analysis was performed as described herein.
A549 cells were plated at a densities of 4.5×10^3 in 96 well plates (100 μL total volume per well) and allowed to attach overnight in a 37° C. incubator (5% CO2). Cells were left untreated or pre-treated with 100 μM Z-VAD-FMK for 2 h. […] The MTT assay was then completed and data analysis was performed as described herein.
(A) A549 cells were plated at a densities of 4.5×10^3 in 96 well plates (100 μL total volume per well) and allowed to attach overnight in a 37° C. incubator (5% CO2). Media was removed from cells and replaced with media containing the indicated Antp-AAC-11-LZ peptides at various concentrations (100 μL total volume per well) peptide and the plates were incubated for 24 hours. The MTT assay was then completed and data analysis was performed as described herein. (B) A549 or HaCat cells were plated at a densities of 4.5×10^3 in 96 well plates (100 μL total volume per well) and allowed to attach overnight in a 37° C. incubator (5% CO2). Media was removed from cells and replaced with media containing the indicated peptides at 10 μM (100 μL total volume per well) peptide in the absence of serum and the plates were incubated for 24 hours. The MTT assay was then completed and data analysis was performed as described herein.

The subject of data set [2] is A549 cells. Put plainly: Lactate dehydrogenase (LDH) release, A549 cells. It counts as cell-based, human. The following applies: 10 μM. On the procedure: (A) SeAx or HaCat cells cultured in the absence of 10% FBS were left untreated or treated with 4 μM or 10 μM, respectively, of the Antp-AAC-11-LZ (363-399) peptide for the indicated durations. Cells were then analyzed by flow cytometry for PI staining. The results represent the mean number of PI-positive cells±S.D. from at least three independent experiments. (B) A549 and HaCat cells were plated at a densities of 4.5×10^3 in 96 well plates (100 μL total volume per well) and allowed to attach overnight in a 37° C. incubator (5% CO2). Media was removed from cells and replaced with media containing 10 μM Antp-AAC-11-LZ (363-399) peptide (100 μL total volume per well) peptide and the plates were incubated for the indicated durations. Lactate dehydrogenase (LDH) activity released in the culture medium was then assessed and data expressed as a percentage of the maximal level (Max) of LDH activity determined after total cell lysis±S.D. from at least three independent experiments.
(A) SeAx cultured in the absence of 10% FBS were left untreated or treated with 4 μM of the indicated Antp-AAC-11-LZ peptides for various times. Cells were then analyzed by flow cytometry for PI staining. The results represent the mean number of PI-positive cells±S.D. (B) A549 cells were plated at a densities of 4.5×10^3 in 96 well plates (100 μL total volume per well) and allowed to attach overnight in a 37° C. incubator (5% CO2). Media was removed from cells and replaced with media containing the indicated Antp-AAC-11-LZ peptides at 10 μM (100 μL total volume per well) peptide and the plates were incubated for the indicated durations. Lactate dehydrogenase (LDH) activity released in the culture medium was then assessed and data expressed as a percentage of the maximal level (Max) of LDH activity determined after total cell lysis±S.D.

In the next data set the test system is D3H2LN cells. Put plainly: Proliferation of D3H2LN cells (not showed). Type of data set: cell-based.

For “Ac-RQIKIWFKKQNRRMKWKKAKLNAEKLKDFKIRLQYFARGLQVYIRQLRLALQGKT-NH2 [Antp-AAC-11-LZ (363-399)]”, in the data set on A549 cells [1] (2 µM), the cellular viability is recorded as 97 % of control. The “influence of cycloheximide on peptide induced-cytotoxicity” value in the data set with A549 cells [1] (10 μM cycloheximide, various peptide concentrations, data not shown) was “had no influence”. Also, the “induction of cell death of A549 cells” value with A549 cells [1] (10 μM, serum deprivation, 24 hours, FIG. 1C) is recorded as “induced cell death”. The “effect of pan-caspase inhibitor Z-VAD-FMK on induced cytotoxicity / cell death” value in the data set with A549 cells [1] (100 μM Z-VAD-FMK, 2 h pre-treatment, 24 hours, cisplatin 50 μM, FIG. 3) was “did not rescue, but somehow increased”. Further, the LDH release with A549 cells [2] (5 minutes, relative to maximal LDH release (0.8% Triton X-100)) is recorded as approximately 40%; in the data set with A549 cells [2] (1 hour, compared to maximum LDH release (0.8% Triton X-100)), 80%. In addition, the “LDH release into cell supernatants, in words” value in the data set on A549 cells [2] (time course) is listed as “drastic increase”. Besides, the “proliferation at the concentrations used for migration” value in the data set on D3H2LN cells is given as “neither the Antp-AAC-11-LZ (363-399) or TAT-AAC-11-LZ (363-399) peptides impaired proliferation”.
